The text below walks through data of paper PMC8961538, “N-Acylated and N-Alkylated 2-Aminobenzothiazoles Are Novel Agents That Suppress the Generation of Prostaglandin E2” (Biomolecules, 2022).

A word on the EC50: it is the concentration at which the effect is half-maximal. Broadly, the inhibition is the share of the control response that was lost under treatment. In general, melting point refers to the temperature of the solid-liquid transition.

Data set [1] deals with PGE2 generation in rat mesangial cells. As to conditions: cited from earlier work; for EC50: rat mesangial cells, read-out: EC50, inhibition of PGE2 formation.
The test system of data set [2] is rat-paw carrageenan-induced edema. Briefly: Rat-paw carrageenan-induced-edema assay. As to conditions: for In vivo anti-inflammatory activity compared with indomethacin: 0.01 mmol/kg, same dose as indomethacin. The class given is in vivo. As for the experimental part: The anti-inflammatory activities of selected aminobenzothiazole derivatives were determined by employing the rat-paw carrageenan-induced-edema assay, as previously described. Only male animals (180–220 g body weight) were used. Each group was composed of five animals. The animals were divided into three five-membered groups, and all the tested compounds were suspended in water (0.01 mmol/mL/kg body weight), with a few drops of Tween 80, and ground in a mortar before being administered intraperitoneally simultaneously. After treatment with the tested compounds in group 1, a 2nd group was used as a positive control (indomethacin at 0.01 mmol/mL/kg body weight, i.p.), and another group (3rd) served as the control in which water was administered (negative control). The compounds were injected intraperitoneally at the same time as carrageenan was given by intradermal injection. The rats were euthanized 3.5 h post-injection. The weight of the uninjected with carrageenan paw was subtracted from the weight of the injected paw for each animal. The change in paw weight for the treated animals was compared to that for the control animals and expressed as the percent inhibition of edema. The values of CPE % are the means from three different experiments with standard errors of the mean less than 10%. The statistical significance of the results was established with Student’s t-test, for * p < 0.01 and ** p < 0.05. All the animal experiments performed in the manuscript were conducted in compliance with institutional guidelines. Our studies were in accordance with recognized guidelines on animal experimentation (guidelines for the care and use of laboratory animals published by the Greek Government 160/1991, based on EU regulations 86/609). The rats were kept in the Centre of the School of Veterinary Medicine (EL54 BIO42), Aristotle University of Thessaloniki, which is registered by the official state veterinary authorities (presidential degree 56/2013, in harmonization with the European Directive 2010/63/EEC). The experimental protocols were approved by the Animal Ethics Committee of the Prefecture of Central Macedonia (no. 270079/2500).
(The carrageenan paw model is a standard test of acute inflammation.)

The test system of data set [3] is PGE2 generation in rat mesangial cells. The data set can be described thus: Suppression of IL-1β/forskolin-stimulated PGE2 generation in rat renal mesangial cells. The class given is cell-based. The conditions noted are these: for inhibition at 3 µM / IC50: Rattus norvegicus, Mesangial cell; for IC50: IL-1β plus forskolin, read-out: EC50 (μM), inhibition of PGE2 generation. The protocol:
Rat renal mesangial cells (clone MZ B1), isolated and characterized as previously described, were cultivated in RPMI 1640 medium supplemented with 10% fetal bovine serum; 10 mM 4-(2-hydroxyethyl)-1-piperazineethanesulfonic acid (HEPES), pH 7.4; 6 µg/mL of bovine insulin; 5 µg/mL of transferrin; 5 nM sodium selenite; 100 units/mL of penicillin; and 100 µg/mL of streptomycin. The cells were incubated for 4 h in Dulbecco’s modified Eagle’s medium (DMEM) containing 10 mM HEPES, pH 7.4, and 0.1 mg/mL of fatty acid-free bovine serum albumin (BSA), prior to stimulation.
Confluent mesangial cells in 24-well plates were pretreated for 20 min with varying concentrations of inhibitors and then stimulated for 24 h in a total volume of 400 µL of DMEM containing 0.1 mg/mL of BSA, in the absence or presence of 1 nM interleukin 1β (IL-1) plus 5 μM forskolin (Fk). Thereafter, the supernatants were collected and centrifuged for 5 min at 1000× g. The PGE2 in the supernatant was quantified using an enzyme-linked immunoassay (Enzo Life Sciences, Lörrach, Germany) following the manufacturer’s recommendations.
Statistical analysis of the data was performed using one-way analysis of variance (ANOVA) followed by a Bonferroni’s post hoc test for multiple comparisons (GraphPad Prism 8.4.3., San Diego, CA, USA). The half maximal effective concentrations (EC50) of the inhibitors were calculated using the same software.

Data set [4] has as its target T1, human recombinant group VIA phospholipase A2 (GVIA iPLA2) (Homo sapiens, UniProt O60733).
T1 sequence (O60733 1-806): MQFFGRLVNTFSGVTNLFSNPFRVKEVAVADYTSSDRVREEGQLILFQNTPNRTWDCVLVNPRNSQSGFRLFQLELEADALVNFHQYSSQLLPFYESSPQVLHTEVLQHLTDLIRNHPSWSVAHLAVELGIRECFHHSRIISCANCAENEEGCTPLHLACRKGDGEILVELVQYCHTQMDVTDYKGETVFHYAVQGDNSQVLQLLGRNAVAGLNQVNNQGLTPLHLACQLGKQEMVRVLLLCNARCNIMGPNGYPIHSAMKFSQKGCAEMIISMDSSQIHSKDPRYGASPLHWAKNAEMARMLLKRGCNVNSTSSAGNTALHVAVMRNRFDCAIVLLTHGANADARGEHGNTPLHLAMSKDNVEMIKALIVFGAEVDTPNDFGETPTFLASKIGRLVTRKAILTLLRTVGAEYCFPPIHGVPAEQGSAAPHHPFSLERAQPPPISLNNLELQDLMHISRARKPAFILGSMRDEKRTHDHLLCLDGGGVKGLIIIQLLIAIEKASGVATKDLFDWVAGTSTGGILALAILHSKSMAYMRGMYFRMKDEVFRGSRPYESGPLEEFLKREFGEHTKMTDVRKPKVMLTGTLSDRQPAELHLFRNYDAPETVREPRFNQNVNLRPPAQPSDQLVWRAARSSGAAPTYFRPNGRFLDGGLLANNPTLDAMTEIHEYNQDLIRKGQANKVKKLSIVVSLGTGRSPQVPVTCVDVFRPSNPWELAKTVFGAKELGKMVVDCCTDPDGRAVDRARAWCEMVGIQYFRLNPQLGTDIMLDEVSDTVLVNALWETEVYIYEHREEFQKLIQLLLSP
The data set can be described thus: Lipidomics-based mixed micelle PLA2 activity assay, GVIA iPLA2. The class given is biochemical. As to conditions: mole fraction of inhibitor in total substrate interface required to inhibit enzyme activity by 50%.

The subject of data set [5] is NO formation in cytokine-stimulated rat mesangial cells. The data set can be described thus: IL-1/Fk-stimulated nitrite (NO) formation in rat mesangial cells, Griess assay. The class given is cell-based. As to conditions: IL-1 plus Fk, 24 h; nitrite in supernatants. The protocol: Figure S1. Effect of the inhibitor 19a on IL-1/Fk-stimulated nitrite formation in rat mesangial
Cells were pretreated for 20 min with the indicated concentrations of 19a and then stimulated for
24 h in the absence (-) or presence (+) of 1 nM interleukin 1β (IL-1) plus 5 µM forskolin (Fk).
Nitrite was quantified in supernatants using Griess assay as previously described.1 Data are
presented as mM of nitrite and are means +/- S.D. (n = 3).
1β induction of nitric oxide synthase in renal mesangial cells. Eur. J. Pharmacol. 1993,
(1 picture or pasted object on this page, not shown here)
A general note: The Griess reaction detects nitrite, a stable product of nitric oxide.

Setting [6] is: 24 h, 3 μM, 1 nM IL-1β plus 5 μM forskolin.

Consider `O=C(CCCCc1ccc2ccccc2c1)c1nc2ccccc2o1` [Compound 2], for which the EC50 in data set [1] is 0.79 µM.
Take `COc1ccc2c(c1)c(CC(=O)O)c(C)n2C(=O)c1ccc(Cl)cc1` [Indomethacin, reference compound]: in data set [2] (0.01 mmol/kg i.p., given with carrageenan, 3.5 h post-injection), the “% Reduction of Rat-Paw Edema” value was 37.3%.
As to `c1ccc2cc(CCCNc3nc4ccccc4s3)ccc2c1` [Compound 19a, N-(3-(Naphthalen-2-yl)Propyl)Benzo[d]Thiazol-2-Amine], the melting point lay in the range of 112 to 114 °C. Further, in data set [3] (setting [6]), the inhibition at 3 µM is over 80%. The IC50 in data set [3] (0.1 to 3 µM, 24 h) turned out to be 0.118 µM. Also, the “In vivo anti-inflammatory activity compared with indomethacin” value in data set [2] is “higher than that of indomethacin”. The “In vivo anti-inflammatory activity compared with indomethacin” value in data set [2] (listed as GK543) is on record as “greater than that of indomethacin”. For the same compound, the “XI(50) for GVIA iPLA2” value in data set [4] was 0.03 mole fraction. In addition, the “Effect on NO production” value in data set [5] is recorded as “No effect”.
The compound `c1ccc2c(CCCNc3nc4ccccc4s3)cccc2c1` [Compound 19d, N-(3-(Naphthalen-1-yl)Propyl)Benzo[d]Thiazol-2-Amine] gave a melting point of 134 to 137 °C. The inhibition at 3 µM in data set [3] (setting [6]) was over 80%. For the same compound, in data set [3] (0.1 to 3 µM, 24 h), the IC50 was 0.399 µM.
With `c1ccc2c(OCCNc3nc4ccccc4s3)cccc2c1` [Compound 25b, N-(2-(Naphthalen-1-yloxy)Ethyl)Benzo[d]Thiazol-2-Amine], the melting point is 170 to 173 °C. In addition, the inhibition at 3 µM in data set [3] (setting [6]) came out at 57%.
`COc1ccc(CCC(=O)Nc2nc3ccccc3s2)cc1` [Compound 11, N-(Benzo[d]Thiazol-2-yl)-3-(4-Methoxyphenyl)Propanamide] yielded a melting point of 172 to 174 °C. Besides, in data set [3] (setting [6]), the inhibition at 3 µM is over 80%. Moreover, the IC50 in data set [3] (0.1 to 3 µM, 24 h) is 0.916 µM.
`COc1ccc(/C=C/C(=O)Nc2nc3ccccc3s2)cc1` [Compound 9b, (E)-N-(Benzo[d]Thiazol-2-yl)-3-(4-Methoxyphenyl)Acrylamide] yielded a melting point of 252 to 254 °C. In addition, the inhibition at 3 µM in data set [3] (setting [6]) is 25%.
The like results for `O=C(CCCc1ccc2ccccc2c1)Nc1nc2ccccc2o1` [Compound 5d, N-(Benzo[d]Oxazol-2-yl)-4-(Naphthalen-2-yl)Butanamide] were, in that order, 52 to 55 °C and 73%.
As to `O=C(CCc1ccc2ccccc2c1)Nc1nc2ccccc2s1` [Compound 5b, N-(Benzo[d]Thiazol-2-yl)-3-(Naphthalen-2-yl)Propanamide], the melting point is 46 to 48 °C. The inhibition at 3 µM in data set [3] (setting [6]) was over 80%. In addition, the IC50 in data set [3] (0.1 to 3 µM, 24 h) came to 0.173 µM. Besides, the “In vivo anti-inflammatory activity compared with indomethacin” value in data set [2] is on record as “higher than that of indomethacin”. Moreover, in data set [2] (listed as GK510), the “In vivo anti-inflammatory activity compared with indomethacin” value was “greater than that of indomethacin”.
The compound `COc1ccc(COC(=O)Nc2nc3ccccc3s2)cc1` [Compound 16a, 4-Methoxybenzyl Benzo[d]Thiazol-2-ylcarbamate] showed a melting point of 141 to 143 °C. In data set [3] (setting [6]), the inhibition at 3 µM amounted to 15%.
On the same counts, the results for `O=C(COc1ccc2ccccc2c1)Nc1nc2ccccc2s1` [Compound 7, N-(Benzo[d]Thiazol-2-yl)-2-(Naphthalen-2-yloxy)Acetamide] are 153 to 155 °C and 41%.
The like results for `O=C(NCCCc1ccc2ccccc2c1)c1nc2ccccc2s1` [Compound 14, N-(3-(Naphthalen-2-yl)Propyl)Benzo[d]Thiazole-2-Carboxamide] were, in that order, 48 to 50 °C and 64%.
On the same counts, the results for `O=C(CCc1ccc2ccccc2c1)Nc1nc2ccccc2[nH]1` [Compound 5e, N-(1H-Benzo[d]Imidazol-2-yl)-3-(Naphthalen-2-yl)Propanamide] are 47 to 49 °C and 29%.
As for `O=C(CCCCc1ccc2ccccc2c1)c1nc2ccccc2s1` [Compound 1], the “% inhibition of PGE2 generation” value in data set [1] (comparison value for compound 1) is recorded as 85%. Further, the EC50 in data set [1] was 0.71 µM.
For the compound `O=C(CCc1ccc2ccccc2c1)Nc1nc2ccccc2o1` [Compound 5c, N-(Benzo[d]Oxazol-2-yl)-3-(Naphthalen-2-yl)Propanamide], the melting point lay within 49 to 51 °C. In data set [3] (setting [6]), the inhibition at 3 µM was 49%.
`c1ccc2c(CCCNc3nccs3)cccc2c1` [Compound 19e, N-(3-(Naphthalen-1-yl)Propyl)Thiazol-2-Amine]: the melting point fell in the range of 94 to 97 °C. Besides, in data set [3] (0.1 to 3 µM, low concentrations enhanced PGE2, 1 µM and 3 µM reduced it), the “Concentration dependence of effect on PGE2 generation” value is recorded as “biphasic effect”. Besides, the inhibition at 3 µM in data set [3] (setting [6]) is over 80%.
`FC(F)(F)Oc1ccc2nc(NCCCc3ccc4ccccc4c3)sc2c1` [Compound 19g, N-(3-(Naphthalen-2-yl)Propyl)-6-(Trifluoromethoxy)Benzo[d]Thiazol-2-Amine] yielded a melting point of 150 to 152 °C. The “% Inhibition (at 3 μM) of PGE2 generation” value in data set [3] (3 μM, 1 nM IL-1β plus 5 μM forskolin, 24 h, listed as 19) is “inactive”. Moreover, the inhibition at 3 µM in data set [3] (setting [6]) stood at 0%.
`c1ccc2cc(CCCNc3nc4ccccc4o3)ccc2c1` [Compound 23a, N-(3-(Naphthalen-2-yl)Propyl)Benzo[d]Oxazol-2-Amine] displayed a melting point of 128 to 130 °C. Moreover, the inhibition at 3 µM in data set [3] (setting [6]) was over 80%. In data set [3] (0.1 to 3 µM, 24 h), the IC50 worked out at 0.336 µM.
Consider `O=C(CCCc1ccc2ccccc2c1)Nc1nc2ccccc2s1` [Compound 5a, N-(Benzo[d]Thiazol-2-yl)-4-(Naphthalen-2-yl)Butanamide], for which the melting point was 53 to 55 °C. In addition, in data set [3] (setting [6]), the inhibition at 3 µM was determined as 50%.
